Measured values taken from PMC5650142, “GPR40 partial agonists and AgoPAMs: Differentiating effects on glucose and hormonal secretions in the rodent” (PLoS ONE, 2017).
Where “and” joins values, the source holds several entries; their conditions need not be identical. Identical values can stand only once. Like-named read-outs stand apart in the source and are kept apart here.

Key:
[1] = target: T1, human GPR40 (Homo sapiens, UniProt O14842); test: GPR40 binding assay, partial agonist tracer [3H]L358; set-up: expressed in transfected cells; host or cells: CHO / CHO-K1 cells, membrane preparation; settings: radioligand L-001533358;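 for %Bound: 100% is tracer binding with DMSO alone and 0% is full displacement by a standard compound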
Procedure: Two small molecule tracers, the partial agonist [3H][…] and the AgoPAM [3H]25, are used to measure compound affinity at each site as described previously. Because of the allosteric coupling of the two sites and the nature of the assay, addition of a compound will either displace (binds to same site) or augment (binds to allosterically coupled site) radiotracer. Membranes expressing GPR40 were prepared from CHO cells stably expressing human GPR40. […] Sigma P8830) and were homogenized in 50 ml aliquots with a motor-driven glass Dounce homogenizer, 15 strokes at 1900 rpm on wet ice, repeating once. Homogenates were centrifuged at 2200 rpm for 10 min at 4°C. Supernatants were carefully removed and pooled. Homogenization and centrifugation were repeated until the debris pellet was translucent to maximize membrane recovery. Supernatants were then centrifuged at […] rpm for 20 min. at 4°C. […] Protein concentration was determined by Pierce BCA kit. […] The beads and membrane mixture is then vigorously mixed for 30 minutes at room temperature prior to addition to the assay. […] Next, 15 μl of the radioligand and 35 μl of the beads/membranes solution is added to each well. The assay plates are then sealed and incubated for 30 minutes at room temperature on an orbital shaker. The plates are allowed to settle for 16 hours and then counted on a TopCount scintillation counter (PE). […] Maximal % bound and IC50 are then determined for each test compound. 5 μg/well membrane together with 200 μg/well of PVT WGA SPA beads (GE #RPNG-0001) were suspended in a white 96 well plate with a final concentration of 50 μl/well in assay buffer (50 mM Tris, 10 mM MgCl2, and 2 mM EDTA). […] The plate is briefly mixed and incubated for 3-18 h at room temperature, before it is read on a MicroBeta plate counter (Perkin Elmer, MS, USA).

[2] = target: T2, rat GPR40 (Rattus norvegicus, UniProt Q8K3T4); test: Rat GPR40 IP1 accumulation assay; assay type: cell-based
T2 construct: expressed in transfected cells; host or cells: CHO-K1 (methods)
How it was run: (§1)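 IP1 accumulation is measured by HTRF after 60 min compound stimulation at room temperature in LiCl (50 mM)-containing buffer. Compounds run in ½-log dilutions from a final top concentration of 10 μM or 1 μM. Cells are hGPR40/HEK293, mGPR40/CHO-K1 and rGPR40/CHO-K1. Activity is scaled between DMSO and a partial allosteric agonist and fitted to a 4-parameter curve for EC50 and maximum.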

[3] = target: T3, mouse GPR40 (Mus musculus, UniProt Q76JU9); test: Mouse GPR40 IP1 accumulation assay; assay type: cell-based
T3 construct: expressed in transfected cells; host or cells: CHO-K1 (methods)
How it was run: as §1

[4] = target: T1, human GPR40; test: Human GPR40 IP1 accumulation assay; assay type: cell-based; set-up: expressed in transfected cells
Procedure: Stable cell lines expressing human GPR40 (hGPR40/HEK293), mouse GPR40 (mGPR40/CHO-K1), and rat GPR40 (rGPR40/CHO-K1) were cultured in DMEM media supplemented with 10% FBS, glutamine, non-essential amino acids, and penicillin/streptomycin. hGPR40/HEK293 & mGPR40/CHO-K1 cell media was supplemented with […] G418 (Life Technologies), while rGPR40/CHO-K1 cells were grown in […] blasticidin plus […] hygromycin (Life Technologies). Cell stocks were maintained and grown in a sub-confluent state using standard cell culture procedures. The day before the experiment, the cells were harvested with non-enzymatic cell dissociation buffer and re-suspended in DMEM supplemented with 10% FBS, glutamine, non-essential amino acids, penicillin/streptomycin at 0.15, 0.2 and 0.3 million cells per ml for human, mouse, and rat GPR40, respectively. […] The seeded plates were incubated overnight at 37 C.
On the day of the experiment, the growth media was removed from the assay by gently patting the assay plates on an absorbent sheet and 10 μl of IP1 stimulation buffer (Cis Bio IP-one Tb HTRF kit) supplemented with 50 mM LiCl is added to each well. Test compounds dissolved in DMSO were serially diluted in ½ log increments starting from 2 mM or 0.2 mM and 50 nl of the compound dilution was acoustically added to each well (final starting concentration 10 μM or 1 μM). Plates were then incubated for 60 minutes at room temperature and 10 μl of detection buffer (prepared as described in the Tb kit) is added to each well. The plates are then incubated one additional hour at room temperature. […] For each assay, a standard curve plate in which IP1 is titrated is also included. […] The percent activity at each concentration of test compound is determined using 0% activation (basal activity) determined in those wells that contain DMSO alone, while 100% activity is determined in wells that contained a concentration of a partial allosteric agonist know to activate GPR40. The % activity is then plotted versus the concentration of test compound and the dose response curve fitted to a standard 4-parameter non-linear regression model using a custom in-house developed software package (Merck & Co., Inc., MRL, Kenilworth, NJ, USA). Maximal % activity and EC50 are then determined for each test compound.

[5] = maximal % activity vs in-house partial agonist control

T1 sequence (O14842 whole entry): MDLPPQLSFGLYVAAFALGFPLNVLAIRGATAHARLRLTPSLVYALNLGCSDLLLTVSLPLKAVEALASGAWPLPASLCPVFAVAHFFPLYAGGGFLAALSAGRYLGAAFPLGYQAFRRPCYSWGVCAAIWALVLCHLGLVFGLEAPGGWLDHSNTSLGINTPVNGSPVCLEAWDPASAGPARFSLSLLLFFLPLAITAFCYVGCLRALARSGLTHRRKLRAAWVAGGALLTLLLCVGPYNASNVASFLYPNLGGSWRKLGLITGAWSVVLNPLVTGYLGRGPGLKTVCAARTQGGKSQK
T2 sequence (Q8K3T4 whole entry): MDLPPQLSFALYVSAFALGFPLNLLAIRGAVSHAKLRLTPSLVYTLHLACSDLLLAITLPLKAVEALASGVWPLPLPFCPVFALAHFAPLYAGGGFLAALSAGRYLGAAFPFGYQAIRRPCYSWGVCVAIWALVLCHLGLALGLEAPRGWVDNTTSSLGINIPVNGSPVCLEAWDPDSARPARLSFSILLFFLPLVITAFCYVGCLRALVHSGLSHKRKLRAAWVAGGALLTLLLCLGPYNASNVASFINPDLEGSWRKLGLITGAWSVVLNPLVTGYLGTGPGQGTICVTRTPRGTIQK
T3 sequence (Q76JU9 whole entry): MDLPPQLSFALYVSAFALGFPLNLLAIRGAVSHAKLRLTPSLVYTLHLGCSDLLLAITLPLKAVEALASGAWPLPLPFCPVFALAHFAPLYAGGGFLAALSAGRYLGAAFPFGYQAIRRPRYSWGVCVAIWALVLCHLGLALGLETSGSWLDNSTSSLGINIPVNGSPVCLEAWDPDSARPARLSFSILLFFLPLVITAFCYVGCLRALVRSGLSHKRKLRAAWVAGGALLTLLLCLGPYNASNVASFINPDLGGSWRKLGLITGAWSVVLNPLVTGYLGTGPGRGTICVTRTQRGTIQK

`COc1ccc(F)c(-c2ccc(COc3cccc([C@@H](CC(=O)O)C4CC4)c3)cc2C2=CCCC2(C)C)c1` [AM-1638, reference compound] was tested, and the “% Bound Normalized to 100” value ([1]; dose 0.318285 nM) was 102.20%, the “%Bound” value ([1]; dose 0.318285 nM) was 108.18% and the “% Bound Normalized to 100” value ([1]; dose 1.00578 nM) was 103.34%. The “%Bound” value ([1]; dose 1.00578 nM) was 109.31%, the “% Bound Normalized to 100” value ([1]; dose 3.17827 nM) was 130.10% and the “%Bound” value ([1]; dose 3.17827 nM) was 136.07%. For the same compound, the “% Bound Normalized to 100” value ([1]; dose 10.0433 nM) was 137.50%, the “%Bound” value ([1]; dose 10.0433 nM) was 143.47% and the “% Bound Normalized to 100” value ([1]; dose 31.7369 nM) was 182.19%. The “%Bound” value ([1]; dose 31.7369 nM) was 188.17%, the “% Bound Normalized to 100” value ([1]; dose 100.289 nM) was 189.31% and the “%Bound” value ([1]; dose 100.289 nM) was 195.29%. The “% Bound Normalized to 100” value ([1]; dose 316.912 nM) was 199.27%, the “%Bound” value ([1]; dose 316.912 nM) was 205.25% and the “% Bound Normalized to 100” value ([1]; dose 1001.44 nM) was 201.84%. The “%Bound” value ([1]; dose 1001.44 nM) was 207.81%, the “% Bound Normalized to 100” value ([1]; dose 3164.56 nM) was 204.40% and the “%Bound” value ([1]; dose 3164.56 nM) was 210.37%. For the same compound, the “% Bound Normalized to 100” value ([1]; dose 10000 nM) was 189.59%, the “%Bound” value ([1]; dose 10000 nM) was 195.57% and the “Rat GPR40 Receptor Activation (%)” value ([2]; dose 1.00E-06 M) was 370%. For the same compound, the “Rat GPR40 Receptor Activation (%)” value ([2]; dose 1.50E-11 M) was -18%, the “Rat GPR40 Receptor Activation (%)” value ([2]; dose 1.56E-08 M) was 132% and the “Rat GPR40 Receptor Activation (%)” value ([2]; dose 2.44E-10 M) was 11%. For the same compound, the “Rat GPR40 Receptor Activation (%)” value ([2]; dose 2.50E-07 M) was 361%, the “Rat GPR40 Receptor Activation (%)” value ([2]; dose 3.91E-09 M) was 23% and the “Rat GPR40 Receptor Activation (%)” value ([2]; dose 4.00E-12 M) was -6%. The “Rat GPR40 Receptor Activation (%)” value ([2]; dose 6.10E-11 M) was 2%, the “Rat GPR40 Receptor Activation (%)” value ([2]; dose 6.25E-08 M) was 275% and the “Rat GPR40 Receptor Activation (%)” value ([2]; dose 9.77E-10 M) was 18%. The “Rat GPR40 Functional Assay %Act” value ([2]; individual replicates (n)) was 380% and 366%, the EC50 ([2]; individual replicates (n), read-out: Rat GPR40 Functional Assay EC50) was 26 nM and 56 nM and the “Efficacy (% Activation), Rat” value [2, 5] was “(373%)”. The EC50 ([2]; mean ± SD, n = 2–20, IP accumulation, read-out: Potency [EC50, nM] ± SD, Rat) was 41 ± 21 nM, the “Mouse GPR40 Receptor Activation (%)” value ([3]; dose 1.00E-06 M) was 394% and the “Mouse GPR40 Receptor Activation (%)” value ([3]; dose 1.50E-11 M) was -7%. The “Mouse GPR40 Receptor Activation (%)” value ([3]; dose 1.56E-08 M) was 156%, the “Mouse GPR40 Receptor Activation (%)” value ([3]; dose 2.44E-10 M) was 2.81% and the “Mouse GPR40 Receptor Activation (%)” value ([3]; dose 2.50E-07 M) was 318%. For the same compound, the “Mouse GPR40 Receptor Activation (%)” value ([3]; dose 3.91E-09 M) was 67%, the “Mouse GPR40 Receptor Activation (%)” value ([3]; dose 4.00E-12 M) was -8.43% and the “Mouse GPR40 Receptor Activation (%)” value ([3]; dose 6.10E-11 M) was 3.63%. For the same compound, the “Mouse GPR40 Receptor Activation (%)” value ([3]; dose 6.25E-08 M) was 254%, the “Mouse GPR40 Receptor Activation (%)” value ([3]; dose 9.77E-10 M) was 19% and the “Mouse GPR40 Functional Assay %Act” value ([3]; individual replicates (n)) was 406% and 397%. For the same compound, the EC50 ([3]; individual replicates (n), read-out: Mouse GPR40 Functional Assay EC50) was 44 nM and 28 nM, the “Efficacy (% Activation), Mouse” value [3, 5] was “(402%)” and the EC50 ([3]; mean ± SD, n = 2–20, IP accumulation, read-out: Potency [EC50, nM] ± SD, Mouse) was 36 ± 11 nM. For the same compound, the “Human GPR40 Receptor Activation (%)” value ([4]; dose 2.00E-06 M) was 237%, the “Human GPR40 Receptor Activation (%)” value ([4]; dose 2.00E-07 M) was 246% and the “Human GPR40 Receptor Activation (%)” value ([4]; dose 2.00E-08 M) was 186%. For the same compound, the “Human GPR40 Receptor Activation (%)” value ([4]; dose 2.00E-09 M) was 90%, the “Human GPR40 Receptor Activation (%)” value ([4]; dose 2.00E-10 M) was 5.57% and the “Human GPR40 Receptor Activation (%)” value ([4]; dose 6.00E-07 M) was 204%. The “Human GPR40 Receptor Activation (%)” value ([4]; dose 6.00E-08 M) was 223%, the “Human GPR40 Receptor Activation (%)” value ([4]; dose 6.00E-09 M) was 129% and the “Human GPR40 Receptor Activation (%)” value ([4]; dose 6.00E-10 M) was 27%. For the same compound, the “Human GPR40 Receptor Activation (%)” value ([4]; dose 6.00E-11 M) was -7%, the “HUMAN GPR40 Functional Assay %Act” value ([4]; individual replicates (n)) was 245% and 240% and 164% and 211% and 215% and 163% and the EC50 ([4]; individual replicates (n), read-out: HUMAN GPR40 Functional Assay EC50) was 3.7 nM and 4.2 nM and 7.3 nM and 1.3 nM and 2.4 nM and 3.6 nM. For the same compound, the “Efficacy (% Activation), Human” value [4, 5] was “(200%)” and the EC50 ([4]; mean ± SD, n = 2–20, IP accumulation, read-out: Potency [EC50, nM] ± SD, Human) was 3.7 ± 1.9 nM.
